Holding throughout (assay type): functional
In assay [1] the test system is Mythimna separata. Description: Larvicidal activity against fourth-instar larval stage of Mythimna separata (Oriental armyworm) in compound-pretreated corn leaves assessed as mortality at 10 mg/l at 25 +/-1 degC after 4 days.
The subject of assay [2] is Mythimna separata. In words: Larvicidal activity against fourth-instar larval stage of Mythimna separata (Oriental armyworm) in compound-pretreated corn leaves assessed as mortality at 2.5 mg/l at 25 +/-1 degC after 4 days.
For assay [3], the system named is Culex pipiens pallens. In words: Larvicidal activity against fourth-instar larval stage of Culex pipiens pallens (mosquito) assessed as mortality at 0.0025 mg/l at 25 +/-1 degC after 8 days. The following applies: 192 h.
Assay [4] has as its system Mythimna separata. Description: Larvicidal activity against fourth-instar larval stage of Mythimna separata (Oriental armyworm) in compound-pretreated corn leaves assessed as mortality at 5 mg/l at 25 +/-1 degC after 4 days.
The test system of assay [5] is Mythimna separata. Description: Larvicidal activity against fourth-instar larval stage of Mythimna separata (Oriental armyworm) in compound-pretreated corn leaves assessed as mortality at 1 mg/l at 25 +/-1 degC after 4 days.
The test system of assay [6] is Culex pipiens pallens. Description: Larvicidal activity against fourth-instar larval stage of Culex pipiens pallens (mosquito) assessed as mortality at 0.001 mg/l at 25 +/-1 degC after 8 days. The following applies: 192 h.
Assay [7] relates to Culex pipiens pallens. In words: Larvicidal activity against fourth-instar larval stage of Culex pipiens pallens (mosquito) assessed as mortality at 0.01 mg/l at 25 +/-1 degC after 8 days. To be noted: 192 h.
The subject of assay [8] is Culex pipiens pallens. Description: Larvicidal activity against fourth-instar larval stage of Culex pipiens pallens (mosquito) assessed as mortality at 0.005 mg/l at 25 +/-1 degC after 8 days. To be noted: 192 h.
For assay [9], the system named is Mythimna separata. Description: Larvicidal activity against fourth-instar larval stage of Mythimna separata (Oriental armyworm) in compound-pretreated corn leaves assessed as mortality at 25 mg/l at 25 +/-1 degC after 4 days.
Assay [10] relates to Mythimna separata. Description: Ratio of Flucycloxuron LC50 to compound LC50 for fourth-instar larval stage of Mythimna separata (Oriental armyworm) measured after 4 days.
Assay [11] deals with Mythimna separata. In words: Larvicidal activity against fourth-instar larval stage of Mythimna separata (Oriental armyworm) in compound-pretreated corn leaves assessed as mortality at 0.25 mg/l at 25 +/-1 degC after 4 days.
The test system of assay [12] is Culex pipiens pallens. Description: Ratio of larvicidal activity of compound to larvicidal activity of Flucycloxuron for fourth-instar larval stage of Culex pipiens pallens (mosquito) measured after 8 days.
Assay [13] deals with Culex pipiens pallens. Description: Larvicidal activity against fourth-instar larval stage of Culex pipiens pallens (mosquito) assessed as mortality at 0.1 mg/l at 25 +/-1 degC after 8 days. To be noted: 192 h.
In assay [14] the test system is Culex pipiens pallens. Description: Larvicidal activity against fourth-instar larval stage of Culex pipiens pallens (mosquito) assessed as mortality at 0.025 mg/l at 25 +/-1 degC after 8 days. To be noted: 192 h.
For assay [15], the system named is Culex pipiens pallens. In words: Larvicidal activity against fourth-instar larval stage of Culex pipiens pallens (mosquito) assessed as mortality at 0.05 mg/l at 25 +/-1 degC after 8 days. To be noted: 192 h.
The subject of assay [16] is Culex pipiens pallens. In words: Larvicidal activity against fourth-instar larval stage of Culex pipiens pallens (mosquito) assessed as mortality at 0.0005 mg/l at 25 +/-1 degC after 8 days. The following applies: 192 h.
The subject of assay [17] is Mythimna separata. Description: Larvicidal activity against fourth-instar larval stage of Mythimna separata (Oriental armyworm) in compound-pretreated corn leaves assessed as mortality at 0.5 mg/l at 25 +/-1 degC after 4 days.
In assay [18] the test system is Mythimna separata. In words: Larvicidal activity against fourth-instar larval stage of Mythimna separata (Oriental armyworm) in compound-pretreated corn leaves assessed as mortality at 200 mg/l at 25 +/-1 degC after 4 days.
In assay [19] the test system is Mythimna separata. Description: Larvicidal activity against fourth-instar larval stage of Mythimna separata (Oriental armyworm) in compound-pretreated corn leaves assessed as mortality at 100 mg/l at 25 +/-1 degC after 4 days.
Assay [20] has as its system Mythimna separata. Description: Larvicidal activity against fourth-instar larval stage of Mythimna separata (Oriental armyworm) in compound-pretreated corn leaves assessed as mortality at 50 mg/l at 25 +/-1 degC after 4 days.
Assay [21] has as its system Culex pipiens pallens. Description: Larvicidal activity against fourth-instar larval stage of Culex pipiens pallens (mosquito) assessed as mortality at 1 mg/l at 25 +/-1 degC after 8 days. To be noted: 192 h.
Assay [22] concerns Culex pipiens pallens. Description: Larvicidal activity against fourth-instar larval stage of Culex pipiens pallens (mosquito) assessed as mortality at 0.5 mg/l at 25 +/-1 degC after 8 days. To be noted: 192 h.
For assay [23], the system named is Culex pipiens pallens. In words: Larvicidal activity against fourth-instar larval stage of Culex pipiens pallens (mosquito) assessed as mortality at 0.25 mg/l at 25 +/-1 degC after 8 days. The following applies: 192 h.
The test system of assay [24] is Culex pipiens pallens. In words: Larvicidal activity against fourth-instar larval stage of Culex pipiens pallens (mosquito) assessed as mortality at 2 mg/l at 25 +/-1 degC after 8 days. The following applies: 192 h.
Assay [25] has as its system Mythimna separata. In words: Larvicidal activity against fourth-instar larval stage of Mythimna separata (Oriental armyworm) in compound-pretreated corn leaves assessed as mortality at 25 +/-1 degC after 4 days.
In assay [26] the test system is Culex pipiens pallens. Description: Larvicidal activity against fourth-instar larval stage of Culex pipiens pallens (mosquito) assessed as mortality at 0.00025 mg/l at 25 +/-1 degC after 8 days. To be noted: 192 h.

In ChEMBL document CHEMBL3045590, “Design, synthesis, bioactivity, and structure-activity relationship (SAR) studies of novel benzoylphenylureas containing oxime ether group” (2008) one finds mortality, RatioLC50 and LC50 data, which are given here for eight molecules.

The structures appear in SMILES notation. ≈ marks a conversion by molar mass, not a printed value.

A word on the mortality: it is the percentage killed. One may read the LC50 as the concentration that kills 50% of the test population.

`O=C(NC(=O)c1c(F)cccc1F)Nc1ccc(/C=N/OCC2CC2)cc1`: the mortality at 10 µg/mL in the assay with Mythimna separata [1] turned out to be 100%. In addition, the mortality at 2.5 µg/mL in the assay on Mythimna separata [2] is 90%. Further, in the assay with Culex pipiens pallens [3], the mortality at 0.0025 µg/mL was found to be 60%. In the assay on Mythimna separata [4], the mortality at 5 µg/mL amounted to 100%. Moreover, the mortality at 1 µg/mL with Mythimna separata [5] worked out at 0%. Further, the mortality at 0.001 µg/mL with Culex pipiens pallens [6] came to 0%. Further, in the assay on Culex pipiens pallens [7], the mortality at 0.01 µg/mL worked out at 100%. Further, the mortality at 0.005 µg/mL in the assay with Culex pipiens pallens [8] was found to be 100%. The mortality at 25 µg/mL with Mythimna separata [9] amounted to 100%.

Regarding `CC(C)(C)O/N=C/c1ccc(NC(=O)NC(=O)c2c(F)cccc2F)cc1`, the RatioLC50 with Mythimna separata [10] is listed as 5; with Culex pipiens pallens [12] it was 10. For the same molecule, in the assay on Mythimna separata [1], the mortality at 10 µg/mL worked out at 100%. For the same molecule, in the assay with Mythimna separata [2], the mortality at 2.5 µg/mL worked out at 100%. For the same molecule, the mortality at 0.25 µg/mL in the assay on Mythimna separata [11] is 0%. Moreover, the mortality at 0.0025 µg/mL in the assay with Culex pipiens pallens [3] stood at 90%. Further, in the assay on Mythimna separata [4], the mortality at 5 µg/mL turned out to be 100%. For the same molecule, the mortality at 1 µg/mL with Mythimna separata [5] worked out at 100%. The mortality at 0.001 µg/mL in the assay with Culex pipiens pallens [6] came to 70%. Moreover, the mortality at 0.1 µg/mL in the assay on Culex pipiens pallens [13] amounted to 100%. In the assay with Culex pipiens pallens [14], the mortality at 0.025 µg/mL was found to be 100%. Besides, the mortality at 0.05 µg/mL in the assay with Culex pipiens pallens [15] amounted to 100%. Besides, in the assay with Culex pipiens pallens [7], the mortality at 0.01 µg/mL turned out to be 100%. Also, the mortality at 0.005 µg/mL in the assay on Culex pipiens pallens [8] came to 100%. Besides, the mortality at 25 µg/mL in the assay with Mythimna separata [9] is 100%. Moreover, the mortality at 0.0005 µg/mL with Culex pipiens pallens [16] was 20%. In the assay with Mythimna separata [17], the mortality at 0.5 µg/mL was 85%.

`C[Si](C)(C)O/N=C/c1ccc(NC(=O)NC(=O)c2c(F)cccc2F)cc1`: in the assay on Mythimna separata [18], the mortality at 200 µg/mL worked out at 100%. For the same molecule, in the assay with Mythimna separata [19], the mortality at 100 µg/mL was determined as 60%. Further, the mortality at 50 µg/mL with Mythimna separata [20] came to 0%. Moreover, the mortality at 1 µg/mL with Culex pipiens pallens [21] came to 100%. Further, the mortality at 0.5 µg/mL in the assay on Culex pipiens pallens [22] was 100%. Further, the mortality at 0.25 µg/mL in the assay on Culex pipiens pallens [23] came out at 0%. Further, in the assay with Culex pipiens pallens [24], the mortality at 2 µg/mL stood at 100%.

Consider `O=C(NC(=O)c1c(F)cccc1F)Nc1cc(Cl)c(F)c(Cl)c1F` [TEFLUBENZURON], for which the median lethal concentration (LC50) in the assay with Mythimna separata [25] worked out at 1.14 mg/L (≈ 2.99 µM).

On to `O=C(NC(=O)c1c(F)cccc1F)Nc1ccc(/C=N/OC(C(F)(F)F)C(F)(F)F)cc1`, for which the mortality at 10 µg/mL with Mythimna separata [1] was found to be 100%. Further, the mortality at 2.5 µg/mL in the assay on Mythimna separata [2] was 100%. In addition, the mortality at 0.25 µg/mL in the assay on Mythimna separata [11] stood at 0%. In addition, the mortality at 0.0025 µg/mL with Culex pipiens pallens [3] is 100%. In the assay on Mythimna separata [4], the mortality at 5 µg/mL was found to be 100%. In the assay on Mythimna separata [5], the mortality at 1 µg/mL was 90%. Further, the RatioLC50 with Culex pipiens pallens [12] is listed as 10. Further, the mortality at 0.00025 µg/mL in the assay with Culex pipiens pallens [26] worked out at 30%. The mortality at 0.001 µg/mL with Culex pipiens pallens [6] was 90%. For the same molecule, in the assay with Culex pipiens pallens [13], the mortality at 0.1 µg/mL was 100%. Besides, the mortality at 0.025 µg/mL with Culex pipiens pallens [14] was 100%. Also, in the assay on Culex pipiens pallens [15], the mortality at 0.05 µg/mL stood at 100%. Further, the mortality at 0.01 µg/mL in the assay with Culex pipiens pallens [7] worked out at 100%. In the assay on Culex pipiens pallens [8], the mortality at 0.005 µg/mL came out at 100%. The mortality at 25 µg/mL with Mythimna separata [9] is 100%. The mortality at 0.0005 µg/mL with Culex pipiens pallens [16] was found to be 60%. For the same molecule, the mortality at 0.5 µg/mL in the assay with Mythimna separata [17] was determined as 40%.

For the molecule `O=C(NC(=O)c1c(F)cccc1F)Nc1ccc(/C=N/O)cc1`, the mortality at 200 µg/mL in the assay on Mythimna separata [18] was 80%. Moreover, in the assay with Culex pipiens pallens [13], the mortality at 0.1 µg/mL came out at 10%. For the same molecule, the mortality at 1 µg/mL in the assay on Culex pipiens pallens [21] stood at 100%. Besides, in the assay on Culex pipiens pallens [22], the mortality at 0.5 µg/mL worked out at 60%. The mortality at 0.25 µg/mL in the assay on Culex pipiens pallens [23] came out at 40%. The mortality at 2 µg/mL in the assay with Culex pipiens pallens [24] came to 100%.

For the molecule `O=C(NC(=O)c1c(F)cccc1F)Nc1ccc(/C=N/OCC2CCCC2)cc1`, the mortality at 10 µg/mL with Mythimna separata [1] came to 0%. The mortality at 200 µg/mL in the assay on Mythimna separata [18] turned out to be 80%. Moreover, the mortality at 100 µg/mL in the assay with Mythimna separata [19] turned out to be 40%. In the assay on Culex pipiens pallens [13], the mortality at 0.1 µg/mL is 10%. Moreover, the mortality at 50 µg/mL in the assay on Mythimna separata [20] amounted to 10%. The mortality at 1 µg/mL in the assay on Culex pipiens pallens [21] stood at 100%. Also, the mortality at 0.5 µg/mL in the assay with Culex pipiens pallens [22] stood at 10%. Moreover, the mortality at 25 µg/mL with Mythimna separata [9] turned out to be 10%. Also, the mortality at 0.25 µg/mL with Culex pipiens pallens [23] is 10%. The mortality at 2 µg/mL in the assay on Culex pipiens pallens [24] was 100%.

Regarding `O=C(NC(=O)c1c(F)cccc1F)Nc1ccc(CO/N=C(/c2ccc(Cl)cc2)C2CC2)cc1` [FLUCYCLOXURON], the mortality at 10 µg/mL in the assay with Mythimna separata [1] turned out to be 95%. In addition, the mortality at 2.5 µg/mL in the assay on Mythimna separata [2] was 50%. Further, the mortality at 5 µg/mL with Mythimna separata [4] is 90%. The mortality at 1 µg/mL with Mythimna separata [5] stood at 10%. Also, the mortality at 0.1 µg/mL with Culex pipiens pallens [13] came to 100%. For the same molecule, the mortality at 0.025 µg/mL with Culex pipiens pallens [14] is 15%. In the assay on Culex pipiens pallens [15], the mortality at 0.05 µg/mL was determined as 100%. In addition, the mortality at 0.01 µg/mL in the assay with Culex pipiens pallens [7] came to 0%. Also, in the assay on Mythimna separata [25], the median lethal concentration (LC50) came to 2.44 mg/L (≈ 5.04 µM). Further, in the assay on Mythimna separata [17], the mortality at 0.5 µg/mL turned out to be 0%.
